From ChEMBL document CHEMBL6103618, “Discovery of Novel Oxazolo[4,3-f]purine Derivatives as Antitumor Agents through PPIA Interaction” (J Med Chem, 2025)
Calls of active or inactive are those of the source. No cut-off for these calls is given here.

Experiments:
HCT-116 [1] = assay: Induction of intracellular ROS generation in human HCT-116 cells harboring siPPIA-3 at 1.2 uM by flow cytometry (reference value: 15.4 %); assay type: functional
[2] = Toxicity in BALB/c mouse implanted with mouse CT26 cells assessed as abnormality in liver at 15 to 45 mg/kg, ip qd treated for 14 days by H and E staining based analysis; assay type: organism-based; conditions: in vivo, 336 h, dose 15-45 mg/kg, time 14 day
HCT-116 [3] = assay: Induction of DNA damage in human HCT-116 cells assessed as increase in gamma-H2AX level at 0.3 to 1.2 uM incubated for 48 hrs by Western blot analysis; assay type: functional, cell-based; conditions: dose 0.3-1.2 µM
HCT-116 [4] = assay: Induction of apoptosis in human HCT-116 cells assessed as decrease in Bcl-2 level at 0.3 to 1.2 uM incubated for 48 hrs by Western blot analysis; assay type: functional, cell-based; conditions: dose 0.3-1.2 µM
CT26 [5] = assay: Antitumor activity against mouse CT26 cells implanted in BALB/c mouse assessed as reduction in tumor volume administered intraperitoneally once daily for 14 days; assay type: functional; conditions: dose 15-45 mg/kg, route ip, time 14.0 day
HCT-116 [6] = assay: Effect on NME1 expression in human HCT-116 cells upto 6 uM incubated for 30 mins followed by pronase addition measured after 30 mins by DARTS assay; assay type: functional, cell-based; conditions: time 60.0 min
[7] = Acute toxicity in BALB/c mouse assessed as death rate at 700 mg/kg, ip measured for 14 days; assay type: organism-based; conditions: both, in vivo, time 14 day, read-out: Activity
HCT-116 [8] = assay: Induction of apoptosis in human HCT-116 cells harboring siPPIA-3 assessed as viable cells at 1.2 uM by Annexin V-FITC/PI staining based flow cytometry (reference value: 87.9 %); assay type: functional; conditions: read-out: Activity
HCT-116 [9] = assay: Induction of cell cycle arrest in human HCT-116 cells assessed as accumulation at G2 phase at 0.3 uM incubated for 48 hrs by PI staining based flow cytometry (reference value: 6.08 %); assay type: functional
HCT-116 [10] = assay: Induction of apoptosis in human HCT-116 cells assessed as increase in cleaved caspase-3 level at 0.3 to 1.2 uM incubated for 48 hrs by Western blot analysis; assay type: functional, cell-based; conditions: dose 0.3-1.2 µM
[11] = target: T1, Peptidyl-prolyl cis-trans isomerase A (Homo sapiens, UniProt P62937); assay: Binding affinity to CM5 chip-immobilized PPIA (unknown origin) assessed as dissociation constant by SPR analysis
Target sequence in this assay (P62937 whole entry): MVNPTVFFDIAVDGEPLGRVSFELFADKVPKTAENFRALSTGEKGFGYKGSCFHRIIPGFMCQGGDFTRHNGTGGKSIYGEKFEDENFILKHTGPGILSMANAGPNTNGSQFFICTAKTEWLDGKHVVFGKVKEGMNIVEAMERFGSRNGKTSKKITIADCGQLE

HCT-116 [12] = assay: Induction of apoptosis in human HCT-116 cells harboring siNC assessed as necrotic cells at 1.2 uM by Annexin V-FITC/PI staining based flow cytometry (reference value: 0.21 %); assay type: functional
HCT-116 [13] = assay: Anti-proliferative activity against human HCT-116 cells harboring siNC assessed as decrease in p-p38 level at 1.2 uM by Western blot analysis; assay type: functional, cell-based
HCT-116 [14] = assay: Induction of apoptosis in human HCT-116 cells assessed as decrease in Bcl-2 level at 1.2 uM in presence of NAC by Western blot analysis; assay type: functional, cell-based
HCT-116 [15] = assay: Induction of cell cycle arrest in human HCT-116 cells assessed as accumulation at S phase at 1.2 uM incubated for 48 hrs by PI staining based flow cytometry (reference value: 34.55 %); assay type: functional
[16] = target: T1, Peptidyl-prolyl cis-trans isomerase A; assay: Binding affinity to PPIA (unknown origin) at 2 uM preincubated for 30 mins followed by Proteinase K addition measured after 10 mins by LiP-SMap analysis
Target sequence in this assay (P62937 whole entry, looked up): as the sequence (P62937 whole entry) above

HepG2 = assay: Antiproliferative activity against human HepG2 cells assessed as inhibition of cell viability incubated for 48 hrs by CCK8 assay; assay type: functional, cell-based; conditions: HepG2, 48 h
HCT-116 [17] = assay: Induction of apoptosis in human HCT-116 cells assessed as viable cells at 0.3 uM incubated for 48 hrs by Annexin V-FITC/PI staining based flow cytometry (reference value: 96.2 %); assay type: functional; conditions: read-out: Activity
HCT-116 [18] = assay: Induction of apoptosis in human HCT-116 cells assessed as necrotic cells at 0.6 uM incubated for 48 hrs by Annexin V-FITC/PI staining based flow cytometry (reference value: 1.15 %); assay type: functional
[19] = Toxicity in BALB/c mouse implanted with mouse CT26 cells assessed as change in body weight at 15 to 45 mg/kg, ip qd treated for 14 days; assay type: organism-based; conditions: in vivo, 336 h, dose 15-45 mg/kg, time 14 day
HCT-116 [20] = assay: Anti-migration activity in human HCT-116 cells harboring siNC at 1.2 uM incubated for 24 hrs by wound healing assay; assay type: functional, cell-based
HCT-116 [21] = assay: Induction of mitochondrial dysfunction in human HCT-116 cells assessed as decrease in ATP6 level at 0.3 to 1.2 uM by Western blot analysis; assay type: functional, cell-based; conditions: dose 0.3-1.2 µM
CT26 [22] = assay: Antitumor activity against mouse CT26 cells implanted in BALB/c mouse assessed as decrease in Ki67 level at 15 to 45 mg/kg, ip qd treated for 14 days by IHC analysis; assay type: functional, organism-based; conditions: dose 15-45 mg/kg, time 14.0 day
HCT-116 [23] = assay: Induction of apoptosis in human HCT-116 cells assessed as early apoptotic cells at 0.3 uM incubated for 48 hrs by Annexin V-FITC/PI staining based flow cytometry (reference value: 1.12 %); assay type: functional
HCT-116 [24] = assay: Anti-proliferative activity against human HCT-116 cells harboring siPPIA-3 assessed as decrease in p-p38 level at 1.2 uM by Western blot analysis; assay type: functional, cell-based
HCT-116 [25] = assay: Induction of apoptosis in human HCT-116 cells assessed as increase in Bax level at 0.3 to 1.2 uM incubated for 48 hrs by Western blot analysis; assay type: functional, cell-based; conditions: dose 0.3-1.2 µM
HCT-116 [26] = assay: Induction of cell cycle arrest in human HCT-116 cells assessed as accumulation at S phase at 0.3 uM incubated for 48 hrs by PI staining based flow cytometry (reference value: 34.55 %); assay type: functional
HCT-116 [27] = assay: Induction of cell cycle arrest in human HCT-116 cells assessed as accumulation at G1 phase at 0.3 uM incubated for 48 hrs by PI staining based flow cytometry (reference value: 59.37 %); assay type: functional
HCT-116 [28] = assay: Induction of apoptosis in human HCT-116 cells assessed as necrotic cells at 1.2 uM incubated for 48 hrs by Annexin V-FITC/PI staining based flow cytometry (reference value: 1.15 %); assay type: functional
CT26 [29] = assay: Antitumor activity against mouse CT26 cells implanted in BALB/c mouse assessed as necrosis in tumor tissue at 15 to 45 mg/kg, ip qd treated for 14 days by H and E staining based analysis; assay type: functional, organism-based; conditions: dose 15-45 mg/kg, time 14.0 day
PANC-1 = assay: Antiproliferative activity against human PANC-1 cells assessed as inhibition of cell viability incubated for 48 hrs by CCK8 assay; assay type: functional, cell-based; conditions: PANC-1, 48 h
HCT-116 [30] = assay: Induction of apoptosis in human HCT-116 cells harboring siNC assessed as viable cells at 1.2 uM by Annexin V-FITC/PI staining based flow cytometry (reference value: 96.9 %); assay type: functional; conditions: read-out: Activity
HCT-116 [31] = assay: Cytotoxicity against human HCT-116 cells harboring siPPIA-3 assessed as inhibition of cell viability incubated for 48 hrs by CCK8 assay; assay type: functional, cell-based; conditions: HCT-116, 48 h
[32] = Toxicity in BALB/c mouse implanted with mouse CT26 cells assessed as abnormality in heart at 15 to 45 mg/kg, ip qd treated for 14 days by H and E staining based analysis; assay type: organism-based; conditions: in vivo, 336 h, dose 15-45 mg/kg, time 14 day
CT26 [33] = assay: Antitumor activity against mouse CT26 cells implanted in BALB/c mouse assessed as tumor growth inhibition administered intraperitoneally once daily for 14 days; assay type: functional; conditions: dose 15-45 mg/kg, route ip, time 14.0 day

Structure (SMILES): C=C(C(=O)OC)N1c2nc(Cl)nc(Cl)c2N2C(c3ccccc3F)OC(C(=O)OCC)(C(=O)OCC)C12 (racemic)
- Activity (HCT-116 [1]): 16.8%
- Activity [2]: Non-toxic
- Activity (HCT-116 [3]): Active
- Activity (HCT-116 [4]): Active
- Activity (CT26 [5]): Dose-dependent-effect
- Activity (HCT-116 [6]): No effect
- mortality at 336 h [7]: 100%
- viability at 1.2 µM (HCT-116 [8]): 87%
- Activity (HCT-116 [9]): 6.26%
- Activity (HCT-116 [10]): Active
- Kd [11]: 520 nM
- Activity (HCT-116 [12]): 0.57%
- Activity (HCT-116 [13]): Active
- Activity (HCT-116 [14]): inactive
- Activity (HCT-116 [15]): 28.16%
- Activity [16]: Active
- IC50 (HepG2): 2160 nM
- viability at 0.3 µM (HCT-116 [17]): 82.9%
- Activity (HCT-116 [18]): 2.12%
- Activity [19]: Non-toxic
- Activity (HCT-116 [20]): Active
- Activity (HCT-116 [21]): Active
- Activity (CT26 [22]): Active
- Activity (HCT-116 [23]): 11.7%
- Activity (HCT-116 [24]): inactive
- Activity (HCT-116 [25]): Active
- Activity (HCT-116 [26]): 27.89%
- Activity (HCT-116 [27]): 65.85%
- Activity (HCT-116 [28]): 2.4%
- Activity (CT26 [29]): Active
- IC50 (PANC-1): 3310 nM
- viability at 1.2 µM (HCT-116 [30]): 77.8%
- IC50 (HCT-116 [31]): 1940 nM
- Activity [32]: Non-toxic
- inhibition (CT26 [33]): Dose-dependent-effect
